Patent EP4786487A1, “PEPTIDE” (Peptidream Inc, priority 2023, dated 2025)
pIC50: −log10 of the molar value. Starred links: 1 amine or outer side, 2 acyl side, 3 side chain; linkers in the order of their positions; H or OH if unused. Positions of bridges follow the written chain, without caps; N, C: chain ends. Non-standard residues stand in square brackets, D forms with d. Residues, ends and D or L forms follow the SMILES beside them. Phe(3-OCH2COOH) = N[C@@H](Cc1cccc(OCC(=O)O)c1)C(=O)O; Phe(4-COOH) = N[C@@H](Cc1ccc(C(=O)O)cc1)C(=O)O; Gly(N(CH2)3COOH) = O=C(O)CCCNCC(=O)O; X1 = CCCCCCC[C@H](N[*:1])C(=O)[*:2]; NMeF = CN[C@@H](Cc1ccccc1)C(=O)O; NMeA = CN[C@@H](C)C(=O)O

Tests used:
[1] = target: T1, Myostatin (Homo sapiens, UniProt O14793); test: Reporter gene assay for myostatin signaling in HEK-Blue TGF-β Cells, myostatin; assay type: cell-based; conditions: myostatin 3 ng/mL
T1 construct: active myostatin (also called mature myostatin) is a homodimer consisting of two C-terminal growth factor domains; purchased R&D systems 788-G8/CF
T1 sequence (O14793 267-375): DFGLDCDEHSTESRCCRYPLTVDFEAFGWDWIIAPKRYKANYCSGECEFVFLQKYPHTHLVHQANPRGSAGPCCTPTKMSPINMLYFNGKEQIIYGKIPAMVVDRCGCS
Procedure: (§1) In this Example, the in vitro activity of the peptide Myostatin_99_v145 (SEQ ID NO: 30) was evaluated using a reporter gene assay for myostatin signaling.
(§2) HEK-Blue (trademark) TGF-β Cells (hkb-tgfbv2, InvivoGen) were cultured in DMEM High glucose GlutaMAX (10569010, Thermo) containing 10% FBS (Heat-inactivated FBS QUALIFIED, 10270-106, Gibco), […] Normocin (ant-nr-05, InvivoGen), […] Zeocin (ant-zn-05, InvivoGen), and 50 µg/mL Gentamicin (11980-14, Nacalai Tesque). The cultured HEK-Blue (trademark) TGF-β Cells were suspended in an assay medium containing DMEM High glucose GlutaMAX, 50 µg/mL Gentamicin, and 1% bovine serum albumin (A7030, Sigma). The cells were seeded at 4 × 10^4 cells/well onto a 96-well plate (356461, Corning), namely BioCoat poly-D-lysine multi-well plate, and allowed to stand for 30 min.
(§3) A 4-fold dilution series of the peptide, namely Myostatin_99_v145 (SEQ ID NO: 30), synthesized according to Example 1, the final concentration of which was from 0.006 nmol/L up to a maximum concentration of 0.1 µmol/L for the myostatin inhibitory activity test, was added to a 96-well U-bottom Non-Binding MicroPlate (650901, Greiner). For the GDF-11 or activin A inhibitory activity test, a 4-fold dilution series, the final concentration of which was from 0.12 nmol/L to a maximum concentration of 2 µmol/L, was added to a 96-well U-bottom Non-Binding MicroPlate (650901, Greiner).
(§4) Subsequently, myostatin (788-G8/CF, R&D systems), GDF-11 (1958-GD-G8/CF, R&D systems), or activin A (338-AC-010/CF, R&D systems) was each added at a final concentration of 3 ng/mL. The plate was sealed with Parafilm, and incubated in a CO2 incubator (37°C, 5% CO2) for 30 min. The samples were added at 50 µL/well to a plate containing HEK-Blue (trademark) TGF-β Cells, and incubated in a CO2 incubator (37°C, 5% CO2) for 24 hours.
(§5) To each well of a UV-Star µClear 96-well (655801, Greiner), 180 µL of Detection buffer (prepared by diluting, with 17.64 mL of distilled water, 180 µL of QUANTI-Blue buffer and 180 µL of QUANTI-Blue solution) was dispensed. Here, 20 µL of the supernatant of the culture medium was transferred to the above Detection buffer and stirred with a shaker for 1 min. The plate was covered and incubated in a CO2 incubator for 3 to 5 hours, and absorbance was measured (Envision 2104, PerkinElmer, 620 nm/bp 40 nm). Based on the absorbance, IC50 values of the peptide were calculated using software (Prism 9, GraphPad).

[2] = test system: Myostatin; test: as above; assay type: cell-based
Procedure: as §1, §2, §3, §4, §5

pIC50 ([1]; read-out: IC50 (nmol/L) Myostatin): 9.64
IC90 ([1]; read-out: IC90 (nmol/L) Myostatin): 0.64 nmol/L
Compound: CCCCCCC[C@@H]1NC(=O)[C@H](Cc2ccccc2)N(C)C(=O)[C@H](CCCNC(=N)N)NC(=O)[C@H](Cc2ccc(C(=O)O)cc2)NC(=O)[C@H](Cc2cccc(OCC(=O)O)c2)NC(=O)[C@H](C)N(C)C(=O)[C@H]([C@@H](C)CC)NC(=O)[C@H](Cc2ccccc2)N(C)C(=O)[C@H](Cc2ccc(O)cc2)NC(=O)[C@H](Cc2c[nH]c3ccccc23)NC(=O)[C@H](C)NC(=O)CN(CCCC(=O)O)C(=O)CSC[C@H](C(=O)O)NC(=O)[C@H](Cc2ccccc2)N(C)C(=O)[C@H](C)N(C)C1=O [Myostatin_99_v145] ({CH2CO}-[Gly(N(CH2)3COOH)]AWY[NMeF]I[NMeA][Phe(3-OCH2COOH)][Phe(4-COOH)]R[NMeF][X1][NMeA][NMeF][dC]-OH; thioether N-15)
Selectivity (GDF11/myostatin) ([2]; from IC50): 270
Selectivity (GDF11/myostatin) ([2]; from IC90): 1,088
